#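 At the GI50, growth is halved. TGI denotes the concentration required for complete inhibition of growth.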
# Tests used:
# Test in all cases: NCI anticancer screen, dose series, 384-well format
# HCC-2998 colon = tested on: HCC-2998 colon
# DU-145 prostate = tested on: DU-145 prostate
# BT-549 breast = tested on: BT-549 breast
# NCI-H23 lung = tested on: NCI-H23 lung
# COLO 205 colon = tested on: COLO 205 colon
# A549 NSCLC = tested on: A549 NSCLC
# 786-0 renal = tested on: 786-0 renal
# MOLT-4 leukemia = tested on: MOLT-4 leukemia
# HL-60(TB) leukemia = tested on: HL-60(TB) leukemia
# SW-620 colon = tested on: SW-620 colon
# RXF 393 renal = tested on: RXF 393 renal
# NCI/ADR-RES ovarian = tested on: NCI/ADR-RES ovarian
# K-562 leukemia = tested on: K-562 leukemia
structure (smiles),measurement,setting,value
C=CC(=O)Nc1cccc(Oc2nc(Nc3ccc(N4CCN(C)CC4)cc3)nc3ccsc23)c1,GI50,HCC-2998 colon,1.7 µM
same,TGI,HCC-2998 colon,3.09 µM
same,GI50,DU-145 prostate,1.42 µM
same,TGI,DU-145 prostate,3.21 µM
same,GI50,BT-549 breast,1.38 µM
same,TGI,BT-549 breast,2.69 µM
same,GI50,NCI-H23 lung,1.94 µM
same,TGI,NCI-H23 lung,5.37 µM
same,GI50,COLO 205 colon,1.83 µM
same,TGI,COLO 205 colon,3.25 µM
same,GI50,A549 NSCLC,1.64 µM
same,TGI,A549 NSCLC,3.5 µM
same,GI50,786-0 renal,1.46 µM
same,TGI,786-0 renal,2.81 µM
same,GI50,MOLT-4 leukemia,1.53 µM
same,TGI,MOLT-4 leukemia,2.89 µM
same,GI50,HL-60(TB) leukemia,1.6 µM
same,TGI,HL-60(TB) leukemia,2.97 µM
same,GI50,SW-620 colon,1.74 µM
same,TGI,SW-620 colon,3.14 µM
same,GI50,RXF 393 renal,1.23 µM
same,TGI,RXF 393 renal,2.49 µM
same,GI50,NCI/ADR-RES ovarian,1.94 µM
same,TGI,NCI/ADR-RES ovarian,4 µM
same,GI50,K-562 leukemia,1.38 µM
same,TGI,K-562 leukemia,2.72 µM

# From PubChem BioAssay (NCI)
